{"source": "paper PMC13130965", "about": "“An Integrated Approach Combining Regulatory Tests in tg(cyp19a1b:GFP) Zebrafish Embryos to Assess Toxicity, Developmental Effects, and Estrogenic Activity of Chemicals: A Case Study with Bisphenol A Substitutes” (Environmental Science & Technology, 2026)", "key": {"[1]": {"assay": "Refined Fish Embryo Acute Toxicity test (FET, OECD TG 236): mortality", "type": "in vivo, zebrafish (Danio rerio)", "settings": "tg(cyp19a1b:GFP), zebrafish, in vivo, LC50 (96h) experimental (FET test), nominal, brackets 95% CI"}, "[2]": {"system": "tg(cyp19a1b:GFP) zebrafish embryos", "assay": "Refined FET: developmental effects / malformations", "type": "in vivo, zebrafish (Danio rerio)", "settings": "nominal"}, "[3]": {"system": "cyp19a1b:GFP (brain aromatase) in tg(cyp19a1b:GFP) zebrafish embryos", "assay": "EASZY assay (OECD TG 250): GFP induction", "type": "in vivo, zebrafish (Danio rerio)", "settings": "Danio rerio, 96 h"}, "[4]": {"biological_target": "zebrafish ERβ2 (zfERβ2) (Danio rerio, UniProt Q7ZU32)", "sequence (Q7ZU32 1-553)": "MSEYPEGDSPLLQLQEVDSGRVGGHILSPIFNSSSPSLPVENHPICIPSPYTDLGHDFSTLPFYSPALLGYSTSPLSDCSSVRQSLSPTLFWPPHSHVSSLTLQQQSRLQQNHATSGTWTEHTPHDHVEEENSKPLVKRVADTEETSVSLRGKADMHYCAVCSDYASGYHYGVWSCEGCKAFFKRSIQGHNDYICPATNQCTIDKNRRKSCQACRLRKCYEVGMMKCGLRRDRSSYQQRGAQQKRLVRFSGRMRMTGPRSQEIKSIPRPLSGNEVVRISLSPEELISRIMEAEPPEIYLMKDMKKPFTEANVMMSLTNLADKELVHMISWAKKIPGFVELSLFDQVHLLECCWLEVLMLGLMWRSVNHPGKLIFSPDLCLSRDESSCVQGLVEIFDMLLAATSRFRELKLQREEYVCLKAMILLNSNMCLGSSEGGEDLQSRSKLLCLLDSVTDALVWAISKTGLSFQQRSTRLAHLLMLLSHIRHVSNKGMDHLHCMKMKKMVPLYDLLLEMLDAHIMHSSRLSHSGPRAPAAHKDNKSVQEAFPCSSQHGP", "assay": "ZELH-zfERβ2 luciferase reporter gene assay", "type": "cell-based", "settings": "% of positive control E2 10 nM"}, "[5]": {"settings": "ref Adamovsky et al.; cited from earlier work"}, "[6]": {"system": "hERβ", "design": "method as in Grimaldi et al.", "settings": "HELN-hERβ; ref Grimaldi et al.; cited from earlier work"}, "[7]": {"system": "hERβ", "design": "method as in Pelch et al.", "settings": "HepG2-hERβ, ref Pelch et al., cited from earlier work"}, "[8]": {"system": "Zebrafish embryos ERE-GFP-Casper", "design": "method as in Green et al. (2016)", "settings": "120h exposure; ref Green et al. (2016); cited from earlier work"}, "[9]": {"settings": "experimental value; ref Epi-Suite (US-EPA); cited from earlier work"}, "[10]": {"system": "Zebrafish embryos", "settings": "cited from earlier work; for LC50: read-out: LC50(96h)"}, "[11]": {"system": "Adult Zebrafish", "settings": "ref Ren et al. (2017); cited from earlier work"}, "[12]": {"settings": "72h exposure, ref Duan et al. (2008)"}, "[13]": {"settings": "120h-exposure, ref Qiu et al. (2021)"}, "[14]": {"settings": "150h exposure, ref Song et al. (2014)"}, "[15]": {"settings": "zebrafish embryos, ref Ren et al. (2017)"}}, "note": "pEC50: −log10 of the molar value. Values joined by “and” are separate entries in the source; they are usually repeats but may differ in a detail not shown here. Equal values may be shown once. Read-outs that look alike come from different tables or passages of the source.", "data": [{"smiles": "CC(C)(c1ccc(O)cc1)c1ccc(O)cc1", "note": "[BPA, 4-[2-(4-hydroxyphenyl)propan-2-yl] phenol]", "values": [{"measurement": "LC50 at 96 h", "setting": "[1]", "value": 14.1, "unit": "µg/mL"}, {"measurement": "EC50", "setting": "[2]; Danio rerio, end of 96 h exposure, read-out: EC50 malformations (cumulative sublethal end points)", "value": 6.06, "unit": "µg/mL"}, {"measurement": "LOEC edema", "setting": "[2]", "value": 10, "unit": "mg/L"}, {"measurement": "LOEC growth retardation", "setting": "[2]", "value": 20, "unit": "mg/L"}, {"measurement": "LOEC heart rate disruption", "setting": "[2]", "value": 20, "unit": "mg/L"}, {"measurement": "LOEC hemorrhage", "setting": "[2]", "value": 10, "unit": "mg/L"}, {"measurement": "LOEC no spontaneous movement", "setting": "[2]", "value": 10, "unit": "mg/L"}, {"measurement": "LOEC no/Less pigmentation", "setting": "[2]", "value": 10, "unit": "mg/L"}, {"measurement": "LOEC tail/spinal malformations", "setting": "[2]", "value": 10, "unit": "mg/L"}, {"measurement": "LOEC deformity of yolk", "setting": "[2]; at least 10% of embryos affected", "value": 20, "unit": "mg/L"}, {"measurement": "minimal effective concentration", "setting": "[3]; read-out: EASZY LOEC (GFP induction), nominal", "value": 0.625, "unit": "µg/mL"}, {"measurement": "EC50", "setting": "[3]; read-out: EASZY relative EC50, nominal", "value": 0.98, "unit": "µg/mL"}, {"measurement": "maximal efficacy", "setting": "[4]", "value": 55, "unit": "%"}, {"measurement": "Log Kow", "setting": "[5]", "value": 3.32}, {"measurement": "pEC50", "setting": "[6]", "value": 6.42}, {"measurement": "maximal efficacy", "setting": "[6]", "value": 66, "unit": "%"}, {"measurement": "pEC50", "setting": "[7]; NA = not active", "value": 6.46}, {"measurement": "maximal efficacy", "setting": "[7]", "value": 97, "unit": "%"}, {"measurement": "EC50", "setting": "[8]", "value": 1.226, "unit": "µg/mL"}, {"measurement": "LOEC", "setting": "[8]", "value": "1000 µg/L and 4380.32 nM"}, {"measurement": "Water solubility", "setting": "[9]", "value": 300, "unit": "µg/mL"}, {"measurement": "mortality", "setting": "[10]; 100 µM (23 mg/L) at 72h, ref Björnsdotter et al. (2017)", "value": 100, "unit": "%"}, {"measurement": "mortality", "setting": "[10]; 20 mg/L, 48h, ref Makarova et al. (2016)", "value": 65, "unit": "%"}, {"measurement": "LC10(96h)", "setting": "[10]; 4-days exposure, ref Blanc et al. (2019)", "value": 6.62, "unit": "µg/mL"}, {"measurement": "LC50(48h)", "setting": "[10]; 4-days exposure, ref Tišler et al. (2016)", "value": "15.9 (13.8-18.3) mg/L"}, {"measurement": "mortality", "setting": "[10]; 5-15 µM, ref McCormick et al. (2010)", "value": "4-8%"}, {"measurement": "LC50(24h)", "setting": "[10]; [12]", "value": 16.75, "unit": "µg/mL"}, {"measurement": "NOEC", "setting": "[10]; [12]", "value": 2, "unit": "mg/L"}, {"measurement": "LOEC (body length, GnRH3 neurons, reproductive neuroendocrine-related genes and hormones)", "setting": "[10]; [13]", "value": 100, "unit": "µg/L"}, {"measurement": "NOEC (body length, GnRH3 neurons, reproductive neuroendocrine-related genes and hormones)", "setting": "[10]; [13]", "value": 1, "unit": "µg/L"}, {"measurement": "LC50(144h)", "setting": "[10]; [14]", "value": 7.5, "unit": "µg/mL"}, {"measurement": "LOAELs", "setting": "[10]; [14]", "value": 5, "unit": "mg/L"}, {"measurement": "NOEC (developmental toxicity)", "setting": "[10]; Wildtype (AB/TL), 1-6 dpf static + 6-9 dpf semistatic, ref Catron et al. (2018; 2019)", "value": 11.5, "unit": "µM"}, {"measurement": "LC50(96h)", "setting": "[10]; Zebrafish, 4-days exposure, ref Corrales et al. (2017)", "value": 12.8, "unit": "µg/mL"}, {"measurement": "scoliosis (% of embryos)", "setting": "[10]; at 8.041 mg/L, 2-5 dpf exposure, ref Martínez et al. (2019)", "value": 16, "unit": "%"}, {"measurement": "mortality", "setting": "[10]; at 25 mg/L, ref Duan et al. (2008)", "value": 100, "unit": "%"}, {"measurement": "LC50", "setting": "[10]; 4-days exposure, ref Chow et al. (2013)", "value": 35, "unit": "µM"}, {"measurement": "LC50", "setting": "[10]; Wildtype AB, 96h-exposure, ref Arrokhman et al. (2023)", "value": 57.1, "unit": "µM"}, {"measurement": "delayed hatching EC50(96h)", "setting": "[10]; ref Chow et al. (2013)", "value": 5.25, "unit": "µg/mL"}, {"measurement": "LC50(5dpf)", "setting": "[10]; ref McCormick et al. (2011)", "value": "5 (±0.89) mg/L"}, {"measurement": "LC50(28dpf)", "setting": "[10]; ref McCormick et al. (2011)", "value": 1.8, "unit": "µg/mL"}, {"measurement": "LOAEL(5dpf)", "setting": "[10]; ref McCormick et al. (2011)", "value": 1, "unit": "mg/L"}, {"measurement": "Edema EC50(48h)", "setting": "[10]; ref Tišler et al. (2016)", "value": "13.9 (8.5-22.8) mg/L"}, {"measurement": "Hatching inhibition EC50(72h)", "setting": "[10]; ref Tišler et al. (2016)", "value": 4.0, "unit": "µg/mL"}, {"measurement": "Missing blood flow EC50(48h)", "setting": "[10]; ref Tišler et al. (2016)", "value": 12.3, "unit": "µg/mL"}, {"measurement": "Pigmentation EC50(48h)", "setting": "[10]; ref Tišler et al. (2016)", "value": "3.6 (2.5-5.3) mg/L"}, {"measurement": "LC50 (96h) literature", "setting": "[10]; zebrafish embryos, 95% CI, ref Chow et al.", "value": "8.041 [7.846;8.24] mg/L"}, {"measurement": "LC50 (96h) literature", "setting": "[10]; zebrafish embryos, 95% CI, ref Mu et al.", "value": "10.4 [9.44–11.58] mg/L"}, {"measurement": "LC50 (96h) literature", "setting": "[10]; zebrafish embryos, parentheses SEM, ref Moreman et al.", "value": "12 (0.22) mg/L"}, {"measurement": "LC50 (96h) literature", "setting": "[10]; zebrafish embryos, ref Arrokhman et al.", "value": 13, "unit": "mg/L"}, {"measurement": "LC50 (96h) literature", "setting": "[10]; zebrafish embryos, ref Blanc et al.", "value": 9.82, "unit": "mg/L"}, {"measurement": "LC50 (96h) literature", "setting": "[10]; zebrafish embryos, ref Gao et al.", "value": 11.69, "unit": "mg/L"}, {"measurement": "Body length LOEC", "setting": "[10]; [15]", "value": 4, "unit": "mg/L"}, {"measurement": "Body length NOEC", "setting": "[10]; [15]", "value": 2, "unit": "mg/L"}, {"measurement": "LC50 (96h) literature", "setting": "[10]; zebrafish embryos, ref Ren et al.", "value": 5.82, "unit": "mg/L"}, {"measurement": "LC50(24h)", "setting": "[11]", "value": 9.51, "unit": "µg/mL"}, {"measurement": "LC50(48h)", "setting": "[11]", "value": 9.31, "unit": "µg/mL"}, {"measurement": "LC50(72h)", "setting": "[11]", "value": 8.09, "unit": "µg/mL"}, {"measurement": "LC50(96h)", "setting": "[11]", "value": 8.09, "unit": "µg/mL"}]}]}
